Assays:
[1] = tested on: GAG in the matrix; test: Suppression of reduction in GAG in the matrix caused by stimulation of interleukin-1 or the like
[2] = tested on: Wistar male rats; test: Acute toxicity of esculetin derivatives, rats; conditions: rat, in vivo
Experimental: (§1) The toxicity of the esculetin derivatives of the present invention was examined. Typical examples of the present derivatives were administered orally at a dose of 2000 mg/kg (body weight) to male mice and male rats which were then observed for seven days. No deaths and no remarkable toxicity were observed. The esculetin derivatives of the present invention are extremely safe compounds (see Example 27).
(§2) The acute toxicity of the present substance was examined using Crj: CD-1 (ICR) male mice (6 weeks old) and Wistar male rats (6 weeks old). 6-(β-2-acetoamide-2-deoxy-D-glucopyranosyloxy)-7-hydroxycoumarin [Ib-2] […] No deaths were observed. […] In the experiments, two animals were used for each group.

[3] = tested on: Crj: CD-1 (ICR) male mice; test: Acute toxicity of esculetin derivatives, mice; conditions: mouse, in vivo
Experimental: as §1, §2

Question: Which “suppression of the reduction in GAG in the matrix” value [1] does the source give for Cc1cc(=O)oc2cc(O)c(O)cc12 [4-methylesculetin] here?
Answer: strongly suppress the reduction in the GAG in the matrix

Question: What does the source list for CC(=O)N[C@H]1[C@H](Oc2cc3ccc(=O)oc3cc2O)O[C@H](CO)[C@@H](O)[C@@H]1O [Ib-2]?
Answer: deaths [2]: No deaths; deaths [3]: No deaths

Question: With O=c1ccc2cc(O)c(O)cc2o1 [esculetin] as the compound, how does the “suppression of the reduction in GAG in the matrix” value [1] read?
Answer: strongly suppress the reduction in the GAG in the matrix

From patent publication US5736522A, “Esculetin derivatives and method for manufacture thereof, use thereof, and pharmaceutical composition” (Kureha Chemical Industry Co., Ltd., priority 1993, dated 1998)
